From patent US11261201B2 (priority 2018, dated 2022) come the findings set out here.

≈ marks a conversion by molar mass, not a printed value. Structures can show the parent of a compound that is named as a salt. Where two headings read alike, the source gives them in different places.

Assay [1] has as its system H37RvMA. The experiment in a line: Tuberculosis Alamar Blue/Resazurin assay (MIC). The format is cell-based. Conditions: read-out: WT H37Rv MTB Activity.
Assay [2] relates to E. coli. Briefly: Gram negative MIC protocol (OD600, LB, 24 h). Conditions: for MIC: Escherichia coli.
Procedure: (§1) Overnight bacterial cultures were grown in LB with no added antibiotics at 37° C. with shaking. A 1:1000 dilution of these cultures into LB was exposed to concentration gradients of compounds in 96-well plates (100 μL per well assay volume). Resulting plates were incubated at 37° C. for 24 h without shaking, and OD600 was measured at the end of the incubation. MICs were determined as the lowest concentrations at which OD600 remained at baseline.
The test system of assay [3] is A. baumannii. The experiment in a line: Gram negative MIC protocol (OD600, LB, 24 h). Conditions: for MIC: Acinetobacter baumannii, read-out: MIC A. baumannii LB Media, A. baumannii, LB media, 24 h, OD600.
Procedure: as §1
The mark [4] stands for this setting: Mycobacterium tuberculosis, H37RV, WT H37Rv MTB.
Setting [5] is: read-out: MIC E. coli delta-TolC LB Media, E. coli delta-TolC strain, LB media, 24 h, OD600.
Setting [6] is: read-out: MIC WT E. coli LB Media, wild-type E. coli, LB media, 24 h, OD600.
Where [7] appears, read: read-out: MIC E. coli delta-TolC LB Media, E. coli delta-TolC, LB media, OD600.
Where [8] appears, read: read-out: MIC WT E. coli LB Media, WT E. coli, LB media, OD600.

As for `FC(F)(F)c1ccccc1CNCCC1CCCCC1` [B225, 2-cyclohexyl-N-(2-(trifluoromethyl)benzyl)ethanamine hydrochloride], the MIC is greater than 150 µM in assay [1] (setting [4]), greater than 150 µM in assay [2] (setting [5]), greater than 300 µM in assay [2] (setting [6]) and 300 µM in assay [3].

For the molecule `CC(NCc1ccccc1)C1Cc2ccccc21` (stereo not shown) [B110], the MIC in assay [1] (setting [4]), in assay [2] (setting [7]), in assay [2] (setting [8]) and in assay [3] was greater than 150 µM each time.

Take `CC(CC1CCCCC1)NCc1ccccc1CS(=O)(=O)N(C)C[C@H](O)CO` (stereo partly drawn) [B438, 1-(2-(((1-cyclohexylpropan-2-yl)amino)methyl)phenyl)-N-((S)-2,3-dihydroxypropyl)-N-methylmethanesulfonamide]: the MIC is greater than 150 µM in assay [1] (setting [4]), 7 µM (≈ 2.89 µg/mL) in assay [2] (setting [7]), 150 µM (≈ 61.9 µg/mL) in assay [2] (setting [8]) and greater than 150 µM in assay [3].

In the case of `Cc1noc(C)c1COc1ccccc1CNC(C)CC1CCCCC1` (stereo not shown) [B306], the MIC in assay [1] (setting [4]) is greater than 150 µM; in assay [2] (setting [5]), 12 µM (≈ 4.28 µg/mL); in assay [2] (setting [6]), greater than 150 µM; in assay [3], greater than 150 µM.

For the molecule `OB(O)c1ccccc1CNCCC1CCCCC1` [B340, 2-((2-cyclohexylethylamino)methyl)phenylboronic acid], the MIC in assay [1] (setting [4]) was greater than 150 µM; in assay [2] (setting [5]) it was 55 µM (≈ 14.4 µg/mL); in assay [2] (setting [6]) it was greater than 150 µM; in assay [3], greater than 150 µM.

On to `C1=CC2CC1CC2CCNCc1ccccc1` (stereo not shown) [B70], for which the MIC in assay [1] (setting [4]), in assay [2] (setting [7]), in assay [2] (setting [8]) and in assay [3] was greater than 150 µM each time.

With `CC(NCc1ccccc1)C12CCC(CC1)CC2` (stereo not shown) [B87], the MIC in assay [1] (setting [4]) was greater than 150 µM; in assay [2] (setting [7]), greater than 150 µM; in assay [2] (setting [8]), 300 µM (≈ 73 µg/mL); in assay [3], greater than 150 µM.

As for `CC(CC1CCCCC1)NCc1ccccc1OCc1ccccc1` (stereo not shown) [B409, N-(2-(benzyloxy)benzyl)-1-cyclohexylpropan-2-amine], the MIC was 12.2 µM (≈ 4.12 µg/mL) in assay [1] (setting [4]), 3 µM (≈ 1.01 µg/mL) in assay [2] (setting [7]), 55 µM (≈ 18.6 µg/mL) in assay [2] (setting [8]) and 55 µM (≈ 18.6 µg/mL) in assay [3].

Turning to `C1=C(CCNCc2cccs2)CCCC1` [B152], the MIC in assay [1] (setting [4]), in assay [2] (setting [7]), in assay [2] (setting [8]) and in assay [3] was greater than 150 µM throughout.

On to `COCc1cccc(CNCCC2CCCCC2)c1` [B350], for which the MIC in assay [1] (setting [4]), in assay [2] (setting [5]), in assay [2] (setting [6]) and in assay [3] was greater than 150 µM in each case.

In the case of `c1csc(-c2ccccc2CNCCC2CCCCC2)c1` [B230, 2-cyclohexyl-N-(2-(thiophen-2-yl)benzyl)ethanamine hydrochloride], the MIC in assay [1] (setting [4]) stood at 55 µM; in assay [2] (setting [5]), 4 µM; in assay [2] (setting [6]), 96 µM; in assay [3] it was 96 µM.

Turning to `c1ccc(C2CC2)c(CNCCC2CCCCC2)c1` [B233, 2-cyclohexyl-N-(2-cyclopropylbenzyl)ethanamine hydrochloride], the MIC in assay [1] (setting [4]) amounted to 91 µM; in assay [2] (setting [5]), 10 µM; in assay [2] (setting [6]) it was 300 µM; in assay [3] it was 170 µM.

With `COC(=O)c1occc1COc1ccccc1CNC(C)CC1CCCCC1` (stereo not shown) [B265], the MIC was found to be 91 µM (≈ 35.1 µg/mL) in assay [1] (setting [4]), 3 µM (≈ 1.16 µg/mL) in assay [2] (setting [5]), 150 µM (≈ 57.8 µg/mL) in assay [2] (setting [6]) and 91 µM (≈ 35.1 µg/mL) in assay [3].

`Oc1ccccc1CNCCC1CCCCC1` [B226, 2-((2-cyclohexylethylamino)methyl)phenol]: the MIC is 33 µM (≈ 7.7 µg/mL) in assay [1] (setting [4]), 33 µM (≈ 7.7 µg/mL) in assay [2] (setting [5]), 54 µM (≈ 12.6 µg/mL) in assay [2] (setting [6]) and 54 µM (≈ 12.6 µg/mL) in assay [3].

For `CC(CC1CCCCC1)NCc1ccccc1CS(=O)(=O)N(C)C` (stereo not shown) [B437, 1-(2-(((1-cyclohexylpropan-2-yl)amino)methyl)phenyl)-N,N-dimethylmethane sulfonamide], the MIC in assay [1] (setting [4]) was greater than 150 µM; in assay [2] (setting [7]), 4 µM (≈ 1.41 µg/mL); in assay [2] (setting [8]), 150 µM (≈ 52.9 µg/mL); in assay [3], greater than 150 µM.

Turning to `CC1CCC(NC(=O)NS(=O)(=O)Cc2ccccc2CNC(C)CC2CCCCC2)CC1` (stereo not shown) [B450, 1-(2-(((1-cyclohexylpropan-2-yl)amino)methyl)phenyl)-N-((4-methylcyclohexyl)carbamoyl)methanesulfonamide], the MIC in assay [1] (setting [4]) was 150 µM (≈ 69.6 µg/mL); in assay [2] (setting [7]), 150 µM (≈ 69.6 µg/mL); in assay [2] (setting [8]), greater than 150 µM; in assay [3], greater than 150 µM.

For the molecule `CC(CC1CCCCC1)NCc1ccccc1OCc1cscn1` (stereo not shown) [B292], the MIC in assay [1] (setting [4]) was 150 µM (≈ 51.7 µg/mL); in assay [2] (setting [5]) it was 4 µM (≈ 1.38 µg/mL); in assay [2] (setting [6]), greater than 150 µM; in assay [3] it was greater than 150 µM.

Take `COc1ccc2ccccc2c1CCNCc1ccccc1` [B200]: the MIC in assay [1] (setting [4]) is 91 µM (≈ 26.5 µg/mL); in assay [2] (setting [5]), 170 µM (≈ 49.5 µg/mL); in assay [2] (setting [6]) it was greater than 300 µM; in assay [3], 300 µM (≈ 87.4 µg/mL).

For `O=C1Cc2ccccc2CN1CCc1ccccc1` [B421, 2-phenethyl-1,4-dihydroisoquinolin-3(2H)-one], the MIC in assay [1] (setting [4]) was 55.1 µM (≈ 13.8 µg/mL); in assay [2] (setting [7]), greater than 150 µM; in assay [2] (setting [8]) it was greater than 150 µM; in assay [3], greater than 150 µM.

Turning to `CC(CC1CCCCC1)NCc1ccccc1OCC(=O)NCC1CC1` (stereo not shown) [B284], the MIC is greater than 150 µM in assay [1] (setting [4]), 7 µM (≈ 2.51 µg/mL) in assay [2] (setting [5]), greater than 150 µM in assay [2] (setting [6]) and greater than 150 µM in assay [3].

Turning to `CC(CC1CCCCC1)NCc1ccccc1CS(=O)(=O)NC1CCN(C)CC1` (stereo not shown) [B432, 1-(2-(((1-cyclohexylpropan-2-yl)amino)methyl)phenyl)-N-(1-methylpiperidin-4-yl)methanesulfonamide], the MIC in assay [1] (setting [4]) is greater than 150 µM; in assay [2] (setting [7]), 33 µM (≈ 13.9 µg/mL); in assay [2] (setting [8]) it was 150 µM (≈ 63.2 µg/mL); in assay [3], greater than 150 µM.

`COC(=O)COc1ccccc1CNC(C)CC1CCCCC1` (stereo not shown) [B362]: the MIC in assay [1] (setting [4]) is greater than 150 µM; in assay [2] (setting [5]) it was 7 µM (≈ 2.24 µg/mL); in assay [2] (setting [6]), 150 µM (≈ 47.9 µg/mL); in assay [3] it was 150 µM (≈ 47.9 µg/mL).

With `COc1ccc2c(c1)[C@@H](NCc1ccccc1)CC2` [B209, (S)-N-benzyl-6-methoxy-2,3-dihydro-1H-inden-1-amine hydrochloride], the MIC was greater than 150 µM in assay [1] (setting [4]), greater than 300 µM in assay [2] (setting [5]), greater than 300 µM in assay [2] (setting [6]) and greater than 300 µM in assay [3].

As for `CC(Cc1ccc2ccccc2c1)NCc1ccccc1` (stereo not shown) [B194], in assay [1], the MIC stood at 150 µM (≈ 41.3 µg/mL). Further, the “MIC E. coli delta-TolC LB Media” value in assay [2] (E. coli delta-TolC, LB media, OD600) was 170 µM (≈ 46.8 µg/mL). The “MIC WT E. coli LB Media” value in assay [2] (WT E. coli, LB media, OD600) was greater than 300 µM. The “MIC A. baumannii LB Media” value in assay [3] (A. baumannii, LB media, OD600) was 300 µM (≈ 82.6 µg/mL).

On to `COC(=O)C1CCCCC1CCNCc1ccccc1` (stereo not shown) [B185], for which the MIC was greater than 150 µM in assay [1] (setting [4]), greater than 300 µM in assay [2] (setting [7]), greater than 300 µM in assay [2] (setting [8]) and greater than 300 µM in assay [3].

With `O=C1Cc2ccccc2CN1C1CCCCC1` [B418, 2-cyclohexyl-1,4-dihydroisoquinolin-3(2H)-one], the MIC in assay [1] (setting [4]), in assay [2] (setting [7]), in assay [2] (setting [8]) and in assay [3] was greater than 150 µM in each case.

Turning to `COc1cccc(CNCCC2=CCCCC2)c1` [B143], the MIC in assay [1] (setting [4]), in assay [2] (setting [7]), in assay [2] (setting [8]) and in assay [3] was greater than 150 µM in each case.

Consider `c1ccc(OCC2CCCCO2)c(CNCCC2CCCCC2)c1` (stereo not shown) [B328, 2-cyclohexyl-N-(2-((tetrahydro-2H-pyran-2-yl)methoxy)benzyl)ethanamine hydrochloride], for which the MIC was 150 µM in assay [1] (setting [4]), 55 µM in assay [2] (setting [5]), greater than 150 µM in assay [2] (setting [6]) and greater than 150 µM in assay [3].
